Data on one molecule can be found in patent publication US20090012088A1 (priority 2005, published 2009).

Where two headings read alike, the source gives them in different places.

Series [1] relates to U-937 cells. Description: Protection against H2O2 treatment of U-937 cells (cell survival). The format is cell-based. To be noted: FIG. 13. Here is the method:
We have made multiple derivatives of PIP-1; these compounds are shown below in Table 2 and in FIG. 11 and labeled Structures 1-39. The neuroprotective effects of structures 1-26 were tested in the cellular assay and compared to the neuroprotective effect of PIP-1 (FIG. 13).
PIP-1 and structures 1-26 were screened for protection against H2O2 treatment of U-937 cells FIG. 13.

Series [2] relates to poly(ADP-ribose) in PC-12 cells. Briefly: Intracellular PAR staining in H2O2-treated PC-12 cells (flow cytometry). Conditions: PC-12 cells pre-treated with PIP-1, then H2O2. It counts as cell-based. The protocol: Screening of the 22,000 compounds in this manner produced 38 primary hits (FIG. 15A—“initial hits”). These 38 compounds are assessed for their ability to inhibit PARP-1 and PARG using standard in vitro assays. (12, 29) 20 compounds are PARP-1 inhibitors, and 3 are PARG inhibitors (FIG. 15A). Compounds 1 and 2 inhibit PARG quite well, with IC50 values of ˜0.4-0.5 μM (FIG. 15C). […] Subsequent efforts therefore focused on compound 1, which is named PIP-1 (pyridazinone inhibitor of PARG), and derivatives thereof. […] To determine if PIP-1 could induce the build-up of PAR in cell culture, PC-12 cells were treated with a range of PIP-1 concentrations; H2O2 was then added to induce PARP-1 activity and the cellular PAR levels were quantitated with an anti-PAR antibody and flow cytometry.
Intracellular PAR staining: 1 mL of 10^6 cells/mL PC-12 cells is added to the wells of a 24-well plate. Varying concentrations of PIP-1 or DMSO as a control are added to the cells and incubated for 2 h at 37° C. H2O2 is added to the cells to approximately […]. After a 2 h incubation at 37° C., the cells are thoroughly washed in PBS and fixed overnight in 4° C. ethanol. The cells are again washed in PBS and stained with a 1:50 dilution of anti-poly(ADP-ribose) antibody for 4 h at 4° C. […] After washing with PBS, the fluorescent intensity of each cell is determined by flow cytometry.
(In flow cytometry, cells or beads pass a laser one at a time.)

In series [3] the test system is neuronally differentiated SK-N-SH cells. Description: Protection from MPP+ induced toxicity in neuronally differentiated SK-N-SH cells. It counts as cell-based. Conditions: 10 μM MPP+, 72 h, read-out: EC50 (IC50) for protection from MPP+ induced cell death. Here is the method: In vivo MPTP is metabolized to its active form, the 1-methyl-4-phenylpyridinium ion (MPP^+), and MPP^+ has proven very useful in a variety of cell culture models of PD. To determine the protective effect of PIP-1 on cells subjected to MPP^+ insult, PC-12 (differentiated as above) and SK-N-SH (differentiated with retinoic acid for 12 days) cells are treated with 10 μM MPP^+ and a range of PIP-1 concentrations, and cell death is assessed by propidium iodide staining and flow cytometry. […] As shown in FIGS. 20A and 20B, PIP-1 also protects differentiated PC-12 and SK-N-SH cells from rotenone-induced toxicity as well.
Cell culture conditions: HL-60 and SK-N-SH cells are grown in RPMI 1640 media supplemented with 10% FBS and PC-12 cells are grown in RPMI 1640 media supplemented with 10% HS and 5% FBS. All cell lines are incubated at 37° C. in a 5% CO2, 95% air atmosphere. HL-60 cells are split every two to three days as needed and SK-N-SH cells are split when they reach approximately 90% confluency at a 1:6 ratio. […]
Protection of Rotenone and MPP^+ induced toxicity in PC-12 and SK-N-SH cells: SK-N-SH and PC-12 cells are neuronally differentiated as described above. […] The cells are then washed in PBS and the viability is determined by adding propidium iodide to 1 μg/mL and measuring the fluorescent intensity of each cell by flow cytometry.

Series [4] in a line: Assessment of PIP-1 levels in the brain (blood-brain-barrier penetrance). Conditions: 50 mg/kg i.p. The format is in vivo, mice. Here is the method:
As a prelude to assessment of PIP-1 in a mouse model of PD, the ability of PIP-1 to penetrate the blood-brain-barrier is first assessed. PIP-1 is injected i.p. at a dose of 50 mg/kg, and mice are sacrificed at 1 and 2 h post injection. After sacrifice, to establish the presence of PIP-1 in the brain the striatum was dissected, sonicated in perchloric acid, and centrifuged. The clarified supernatant is analyzed by HPLC. No endogenous compounds interfere with this assay for PIP-1 as no signal is detected in dissected striata from non-treated mice. As shown by FIG. 21A, the striatal penetrance of PIP-1 is at the level of 70 ng/mg of protein. […] Given this blood-brain-barrier penetrance by PIP-1, the compound is assessed in the MPTP mouse model of PD. […] PIP-1 is assessed at concentrations of 0 mg/kg, 1 mg/kg, 5 mg/kg, 10 mg/kg, and 50 mg/kg, and five mice are used in each group. After 30 days, the mice are sacrificed and the striatum dissected and analyzed by HPLC to determine the levels of dopamine and various dopamine metabolites.
Assessment of PIP-1 levels in the brain: PIP-1 was injected into mice i.p. at 50 mg/kg and were sacrificed at 1 and 2 h post injection. […] The clarified supernatant was then injected into an HPLC and the concentration of PIP-1 was determined by comparison to a standard curve. […]

Broadly, the EC50 is the concentration giving half of the maximal effect. In the case of `CN(C)c1cnn(-c2ccccc2)c(=O)c1N` [PIP-1, 4-Amino-5-dimethylamino-2-phenyl-2H-pyridazin-3-one], in series [1], the “Protection of U-937 cells treated with H2O2 (activity compared to PIP-1)” value was “activity similar or better than PIP-1”. In series [2], the “Accumulation of intracellular PAR” value is given as “dose-dependent accumulation of intracellular PAR”. Moreover, the half-maximal effective concentration (EC50) was 1.64 µM in series [3] and approximately 1.8 µM in series [3] (Homo sapiens, SK-N-SH). Further, the “Striatal penetrance of PIP-1” value in series [4] (mice, 1 and 2 h post injection, striatum) is 70 ng/mg of protein. The “PIP-1 in peripheral blood” value in series [4] (same time points) is listed as “no detectable PIP-1”.
